Results taken from patent US20130005802A1, “TREATMENT OF WNT/FRIZZLED-RELATED DISEASES” (priority 2009, published 2013).

Tested on: LEF/TCF transcription factor reporter (TOPFlash)
Experiment: TOPFlash reporter assay in HEK293 cells
Assay type: cell-based
Details: Homo sapiens, read-out: TopFlash assay: IC50
Protocol: To obtain a Frizzled1-GFP stable cell line (Fzd1GFP-U2OS), U2OS cells were transfected with pCS2ratFrizzled1-GFP and pLKO.1 (10:1 ratio by weight), using the Nucleofection transfection protocol from Amaxa, and stable receptor expressing clones were selected using 1.5 μg/mL puromycin in the culture medium. For generating TOPFlash stable cell lines, HEK293 cells were transfected with p8xTOPFlash, the Renilla luciferase plasmid, and pLKO.1 at a ratio by weight of 10:3:1 and stable clones selected using 1 μg/mL puromycin in the growth medium. pLKO.1 was used to confer puromycin resistance to the stable clones.
For the TOPFlash Luciferase assay the TOPFlash stable cells were seeded in 150 μL growing medium/well in 96-well plates at 100% confluency. Fifty microliters of conditioned medium containing the chemical compounds to be tested or DMSO were added to each well. After an 8 hr treatment, the cells were then washed once with PBS, and lysed with 80 μL MPER solution (Pierce, Rockford, Ill.). Thirty microliters of cell lysate were used for measuring luciferase activity in a 96-well plate reader (FluoStar Optima, BMG Labtech, Chicago, Ill.).
LEF/TCF transcription factor reporter (TOPFlash) assay is a general readout for canonical Wnt signaling pathways. […] A Renila luciferase plasmid was also generated to serve as an internal control.
The average TOPFlash reporter activity of Wnt3A plus DMSO treatment was set as 100%, and the relative reporter activity of Wnt3A plus the indicated concentration of niclosmide was calculated and plotted.
The compounds shown in Table 2 were purchased from Sigma-Aldrich (St. Louis, Mo.) or Chembridge (San Diego, Calif.). The activity of each of the compounds as a negative modulator of the Wnt/Frizzled signaling pathway was examined using the Top-flash assay, as described above.

CS(=O)(=O)c1ccc(NC(=O)c2cc(Cl)ccc2O)c(Cl)c1 [Compound 3-11, 5-chloro-N-[2-chloro-4-(methylsulfonyl)phenyl]-2-hydroxybenzamide]
IC50: > 12.5 µM

O=C(Nc1ccc([N+](=O)[O-])cc1Cl)c1cc(Br)ccc1O [Compound 3-4, 5-bromo-N-(2-chloro-4-nitrophenyl)-2-hydroxybenzamide]
IC50: < 1 µM

O=C(Nc1ccc(Oc2ccc(Cl)cc2)c(Cl)c1)c1cc(I)cc(I)c1O [Compound 2-2, Rafoxanide]
IC50: > 12.5 µM

Cc1cc([N+](=O)[O-])c(Cl)cc1NC(=O)c1ccccc1O [Compound 3-2, N-(5-chloro-2-methyl-4-nitrophenyl)-2-hydroxybenzamide]
IC50: < 1 µM

COc1cc([N+](=O)[O-])ccc1NC(=O)c1cc(Cl)ccc1O [Compound 3-9, 5-chloro-2-hydroxy-N-(2-methoxy-4-nitrophenyl)benzamide]
IC50: < 1 µM

O=C(Nc1ccc(Br)cc1)c1cc(Br)cc(Br)c1O [Compound 2-4, 3,5-dibromo-N-(4-bromophenyl)-2-hydroxybenzamide]
IC50: > 12.5 µM

O=C(Nc1ccc([N+](=O)[O-])cc1Cl)c1cccc(Cl)c1 [Compound 1-7, Benzamide, 3-chloro-N-(2-chloro-4-nitrophenyl)-]
IC50: > 12.5 µM

O=C(Nc1cc(Cl)ccc1O)c1ccc([N+](=O)[O-])cc1 [Compound 3-10, N-(5-chloro-2-hydroxyphenyl)-4-nitrobenzamide]
IC50: > 12.5 µM

Nc1ccc(NC(=O)c2cc(Cl)ccc2O)c(Cl)c1 [Compound 1-2, N-(4-amino-2-chlorophenyl)-5-chloro-2-hydroxybenzamide]
IC50: > 12.5 µM

O=C(Nc1ccc(NS(=O)(=O)c2ccc(Cl)cc2)cc1Cl)c1cc(Cl)ccc1O [Compound 3-1, 5-chloro-N-(2-chloro-4-{[(4-chlorophenyl)sulfonyl]amino}phenyl)-2-hydroxybenzamide]
IC50: > 12.5 µM

Cc1cc(C(C#N)c2ccc(Cl)cc2)c(Cl)cc1NC(=O)c1cc(I)cc(I)c1O (stereo not shown) [Compound 2-3, Closantel]
IC50: > 12.5 µM

O=C(Nc1ccc([N+](=O)[O-])cc1)c1cc(Br)ccc1O [Compound 3-5, 5-bromo-2-hydroxy-N-(4-nitrophenyl)benzamide]
IC50: < 1 µM

O=C(Nc1ccc([N+](=O)[O-])cc1Cl)c1cc(Cl)cc(Cl)c1O [Compound 3-3, 3,5-dichloro-N-(2-chloro-4-nitrophenyl)-2-hydroxybenzamide]
IC50: 1 to 12.5 µM

O=C1c2ccc([N+](=O)[O-])cc2C(=O)N1c1cc(Cl)ccc1O [Compound 3-6, 2-(5-chloro-2-hydroxyphenyl)-5-nitro-1H-isoindole-1,3(2H)-dione]
IC50: > 12.5 µM

O=C(Nc1ccc([N+](=O)[O-])cc1)c1cc(Cl)ccc1O [Compound 1-4, 5-chloro-2-hydroxy-N-(4-nitrophenyl)benzamide]
IC50: < 1 µM

O=C(Nc1ccc([N+](=O)[O-])cc1Cl)c1ccccc1O [Compound 3-8, N-(2-chloro-4-nitrophenyl)-2-hydroxybenzamide]
IC50: 1 to 12.5 µM

COc1ccc(Cl)cc1C(=O)Nc1ccc([N+](=O)[O-])cc1Cl [Compound 1-6, Benzamide, 5-chloro-N-(2-chloro-4-nitrophenyl)-2-methoxy-]
IC50: > 12.5 µM

O=C(Nc1cc(Cl)cc(Cl)c1O)c1c(O)c(Cl)cc(Cl)c1Cl [Compound 2-1, Oxyclozanide]
IC50: > 12.5 µM

O=C(Nc1ccc([N+](=O)[O-])cc1Br)c1ccccc1O [Compound 3-7, N-(2-bromo-4-nitrophenyl)-2-hydroxybenzamide]
IC50: 1 to 12.5 µM
